Source: paper PMC4906375, “Contribution of Amphipathicity and Hydrophobicity to the Antimicrobial Activity and Cytotoxicity of β-Hairpin Peptides” (ACS Infectious Diseases, 2016)
Values after ≈ are worked out from the molar mass of the structure shown.

Tests used:
B. subtilis ATCC 6051 = assay: microbe, parasite or virus in culture; assay type: cell-based, Bacillus subtilis; details: Bacillus subtilis, ATCC6051
Experimental: (§1) Both antibacterial and antifungal MIC assays were performed by a broth microdilution plate based method as per CLSI guidelines for antimicrobial susceptibility testing.[53],[54] […] Full assay details are included in the Supporting Information with a full list of strains tested in Table S1.
(§2) Antibacterial assay (Minimum Inhibitory Concentration [MIC]).
(§3) MIC assay was performed by a broth microdilution plate based method as per CLSI guidelines for antimicrobial susceptibility testing of aerobic bacteria.1 Compounds were prepared at 1.28 mg/mL solution in water. The tested strains, Table S1, were cultured in Luria broth (LB) (In Vitro Technologies, USB75852), at 37 °C overnight. A sample of culture was then diluted 40Pfold in fresh Muller Hinton broth (MHB) (Bacto laboratories, 211443) and incubated at 37 °C for 1.5P2 h. The compounds were serially diluted twoPfold across the wells, with compound concentrations ranging from 0.015 µg/mL to 512 µg/mL, plated in duplicate. The resultant midPlog phase cultures were diluted to the final concentration of 1×10^6 CFU/mL, then 50 µL was added to each well of the compoundP containing 96Pwell plates (Corning 3641, NonPbinding Surface [NBS]), giving a final compound concentration range of 0.008 µg/mL to 256 µg/mL and 5x10^5 CFU/mL. All the plates were covered and incubated at 37 °C for 18 h. MICs were determined visually, being defined as the lowest concentration showing no visible growth. Resazurin was added at 0.001% final concentration to each well and incubated for 2 h before MICs were rePread for confirmation using the colour change from blue to pink to indicate wells containing viable cells. The resazurin assay was added in some wells where some form of precipitate was present in otherwise clear wells, making it difficult to ascertain which wells had visible […]
(§4) Antifungal assay (Minimum Inhibitory Concentration [MIC]). MIC assay was performed by a broth microdilution plate based method as per CLSI guidelines for antimicrobial susceptibility testing.2 Fungi strains, Table S1, were cultured for 3 days on Yeast ExtractPPeptone Dextrose (YPD) (SigmaPAldrich, Y1500) agar at 30 °C. A yeast suspension of 1x10^6 to 5x10^6 CFU/mL was prepared from five colonies. These stock suspensions were diluted with Yeast Nitrogen Base (YNB) (Becton Dickinson, 233520) broth to a final concentration of 2.5 ×10^3 CFU/mL. All samples, compounds and standards were plated in 96Pwell plates (Corning 3641, NonPbinding Surface [NBS]), by adding 10 µL of 1.28 mg/mL stock solution to each well and 90 µL of media. Then, the samples were serial diluted (1:2) in 12 concentrations across the plate. The standard antifungal ranged from 256

[1] = tested on: S. aureus ATCC 43300 (MRSA); assay: microbe, parasite or virus in culture; assay type: cell-based, Staphylococcus aureus; details: Staphylococcus aureus
Experimental: as §1, §2, §3, §4

C. albicans ATCC 90028 = assay: microbe, parasite or virus in culture; assay type: cell-based, Candida albicans; details: Candida albicans, ATCC90028; C. albicans ATCC 90028; n = 4; read-out: MIC
Experimental: as §1, §2, §3
as §4, with “256 […]” for “256”
(§5) µg/mL to 0.12 µg/mL and compounds from 128 µg/mL to 0.06 µg/mL with final volumes of 50 µL per well, plated in duplicate. Then, 50 µL of the fungi suspension that was previously prepared in YNB broth to the final concentration of 2.5×10^3 CFU/mL, was added to each well of the compoundPcontaining plates, giving a final standard compound concentration range of 128 µg/mL to 0.06 µg/mL and tested compound from 64 µg/mL to 0.03 µg/mL. Plates were covered and incubated at 35 °C for 24 h. Candida albicans MICs were determined by measuring the absorbance at OD530. For Cryptococcus neoformans 10 µL of 0.06 % resazurin were added to the 24 h incubated plates. Then, these plates were incubated for another 3 h.
(§6) Cryptococcus neoformans MICs were determined by measuring the absorbance at OD570P600. […]

[2] = tested on: C. neoformans ATCC 208821; assay: microbe, parasite or virus in culture; assay type: cell-based, Cryptococcus neoformans; details: Cryptococcus neoformans, ATCC208821; C. neoformans ATCC 208821; n = 4; read-out: MIC
Experimental: as §1, §2, §3
as §4, with “256 […]” for “256”
as §5, §6

[3] = tested on: E. coli ATCC 25922 (control strain); assay type: cell-based, Escherichia coli; details: E. coli ATCC 25922 (control strain); n = 4
Experimental: as §1, §2, §3, §4

[4] = tested on: E. coli ATCC 700926 (K12); assay type: cell-based, Escherichia coli; details: E. coli ATCC 700926 (K12); n = 4
Experimental: as §1, §2, §3, §4

E. coli MB 4902 (ΔlpxC) = assay type: cell-based, Escherichia coli; details: n = 4
Experimental: as §1, §2, §3, §4

K. pneumoniae ATCC 13883 = assay type: cell-based, Klebsiella pneumoniae; details: K. pneumoniae ATCC 13883; n = 4
Experimental: as §1, §2, §3, §4

[5] = tested on: K. pneumoniae ATCC 700603 (MDR); assay type: cell-based, Klebsiella pneumoniae; details: n = 4
Experimental: as §1, §2, §3, §4

[6] = tested on: K. pneumoniae BAA 2146 (NDM-1 pos); assay type: cell-based, Klebsiella pneumoniae; details: n = 4
Experimental: as §1, §2, §3, §4

A. baumannii ATCC 19606 = assay type: cell-based, Acinetobacter baumannii; details: A. baumannii ATCC 19606; n = 4
Experimental: as §1, §2, §3, §4

P. aeruginosa ATCC 27853 = assay type: cell-based, Pseudomonas aeruginosa; details: P. aeruginosa ATCC 27853; n = 4
Experimental: as §1, §2, §3, §4

Molecule: CN[C@H](CC(C)C)C(=O)N[C@H]1C(=O)N[C@@H](CC(N)=O)C(=O)N[C@H]2C(=O)N[C@H]3C(=O)N[C@H](C(=O)N[C@H](C(=O)O)c4cc(O)cc(O)c4-c4cc3ccc4O)[C@H](O)c3ccc(c(Cl)c3)Oc3cc2cc(c3O[C@@H]2O[C@H](CO)[C@@H](O)[C@H](O)[C@H]2O[C@H]2C[C@](C)(N)[C@H](O)[C@H](C)O2)Oc2ccc(cc2Cl)[C@H]1O [vancomycin, reference compound]
- MIC (B. subtilis ATCC 6051): 0.25 µg/mL (≈ 0.173 µM)
- MIC [1]: 1 µg/mL (≈ 0.69 µM)

Molecule: C[C@@H]1[C@H](O)[C@@H](C)/C=C/C=C/C=C/C=C/C=C/C=C/C=C/[C@H](O[C@@H]2O[C@H](C)[C@@H](O)[C@H](N)[C@@H]2O)C[C@@H]2O[C@](O)(C[C@@H](O)C[C@@H](O)[C@H](O)CC[C@@H](O)C[C@@H](O)CC(=O)O[C@H]1C)C[C@H](O)[C@H]2C(=O)O [amphotericin B, reference compound]
- MIC (C. albicans ATCC 90028): 0.06 µg/mL (≈ 0.0649 µM)
- MIC [2]: 0.015 µg/mL (≈ 0.0162 µM)

Molecule: colistin [reference compound]
- MIC [3]: 0.03 µg/mL
- MIC [4]: 0.03 µg/mL
- MIC (E. coli MB 4902 (ΔlpxC)): 0.009 µg/mL
- MIC (K. pneumoniae ATCC 13883): 0.5 µg/mL
- MIC [5]: 0.125 µg/mL
- MIC [6]: 0.03 µg/mL
- MIC (A. baumannii ATCC 19606): 0.03 µg/mL
- MIC (P. aeruginosa ATCC 27853): 0.25 µg/mL
